Like-named read-outs stand apart in the source and are kept apart here.
Test: CARIV-A-001 Part A: single ascending IV doses over 20 minutes in healthy subjects
Assay type: in vivo, human
Details: both sexes, human, plasma, iv
Method: This study was conducted in healthy male or female volunteers, at a single site to assess the safety and PK profile of an IV formulation of Carbaglu and to determine the absolute bioavailability of the current marketed oral formulation of Carbaglu.
The levels of CGA in plasma and urine were analysed using a fully validated method, which included LC-MS/MS analysis. The PK data were analysed based on a non-compartmental model. A model-based approach was implemented for the characterization of the PK properties of the IV formulation in order to estimate the level of PK exposure after different doses administered with different duration of infusion. […] The PK parameters were determined using SAS (version 9.3), and modelling of the PK data was performed using NONMEM (version 7.3, ICON Solutions). PART A: Mono-Centre, Randomized, Successive Groups, Double-Blind, Placebo-Controlled Study in Healthy Male and Female Subjects
Each cohort included a minimum of 3 and maximum of 5 subjects of each of the two genders.
Three loading doses of CGA over 20 minutes were tested by IV administration, 3.5 mg/kg, 5.0 mg/kg and 7.5 mg/kg. For each of these three doses, 6 subjects were administered CGA and 2 received the placebo.
Plasma concentrations of CGA were measured at 18 timepoints, including a sample preceding the start of the administration, and then between 10 minutes and 48 hours following the initiation of the IV infusion.
The PK analysis of Carbaglu was conducted by using standard non-compartmental approach.

## NC(=O)N[C@@H](CCC(=O)O)C(=O)O [carglumic acid, N-carbamoyl-L-glutamic acid]
5 mg/kg, IV over 20 minutes, 5.0 mg/kg, read-out: AUClast-timepoint, Mean
  AUC(0-t): 15300 ng·h/mL
5 mg/kg, IV over 20 minutes, 5.0 mg/kg, read-out: AUClast-timepoint, Median
  AUC(0-t): 15600 ng·h/mL
5 mg/kg, IV over 20 minutes, 5.0 mg/kg, read-out: AUClast-timepoint, Range
  AUC(0-t): 11500 to 19300 ng·h/mL
5 mg/kg, IV over 20 minutes, 5.0 mg/kg, read-out: Clearance (Cl), Mean
  clearance: 5.33 mL/min/kg
5 mg/kg, IV over 20 minutes, 5.0 mg/kg, read-out: Clearance (Cl), Median
  clearance: 5 mL/min/kg
5 mg/kg, IV over 20 minutes, 5.0 mg/kg, read-out: Clearance (Cl), Range
  clearance: 4.17 to 6.83 mL/min/kg
5 mg/kg, IV over 20 minutes, 5.0 mg/kg, read-out: Cmax, Mean
  Cmax: 15000 ng/mL
5 mg/kg, IV over 20 minutes, 5.0 mg/kg, read-out: Cmax, Median
  Cmax: 15600 ng/mL
5 mg/kg, IV over 20 minutes, 5.0 mg/kg, read-out: Cmax, Range
  Cmax: 8420 to 19100 ng/mL
5 mg/kg, IV over 20 minutes, 5.0 mg/kg, read-out: T1/2, Mean
  half-life: 21.6 h
5 mg/kg, IV over 20 minutes, 5.0 mg/kg, read-out: T1/2, Median
  half-life: 21.4 h
5 mg/kg, IV over 20 minutes, 5.0 mg/kg, read-out: T1/2, Range
  half-life: 12.8 to 29.3 h
5 mg/kg, IV over 20 minutes, 5.0 mg/kg, read-out: Volume of Distribution (Vd), Mean
  Vd: 9.94 L/kg
5 mg/kg, IV over 20 minutes, 5.0 mg/kg, read-out: Volume of Distribution (Vd), Median
  Vd: 10.2 L/kg
5 mg/kg, IV over 20 minutes, 5.0 mg/kg, read-out: Volume of Distribution (Vd), Range
  Vd: 4.62 to 12.8 L/kg
7.5 mg/kg, IV over 20 minutes, 7.5 mg/kg, read-out: AUC24h, Mean
  AUC(0-t): 21600 ng·h/mL
7.5 mg/kg, IV over 20 minutes, 7.5 mg/kg, read-out: AUC24h, Median
  AUC(0-t): 20700 ng·h/mL
7.5 mg/kg, IV over 20 minutes, 7.5 mg/kg, read-out: AUC24h, Range
  AUC(0-t): 19200 to 26900 ng·h/mL
7.5 mg/kg, IV over 20 minutes, 7.5 mg/kg, read-out: AUCinf, Mean
  AUC(0-inf): 23900 ng·h/mL
7.5 mg/kg, IV over 20 minutes, 7.5 mg/kg, read-out: AUCinf, Median
  AUC(0-inf): 23200 ng·h/mL
7.5 mg/kg, IV over 20 minutes, 7.5 mg/kg, read-out: AUCinf, Range
  AUC(0-inf): 20200 to 29100 ng·h/mL
7.5 mg/kg, IV over 20 minutes, 7.5 mg/kg, read-out: AUClast-timepoint, Mean
  AUC(0-t): 22600 ng·h/mL
7.5 mg/kg, IV over 20 minutes, 7.5 mg/kg, read-out: AUClast-timepoint, Median
  AUC(0-t): 22100 ng·h/mL
7.5 mg/kg, IV over 20 minutes, 7.5 mg/kg, read-out: AUClast-timepoint, Range
  AUC(0-t): 19600 to 27800 ng·h/mL
7.5 mg/kg, IV over 20 minutes, 7.5 mg/kg, read-out: Clearance (Cl), Mean
  clearance: 5.33 mL/min/kg
7.5 mg/kg, IV over 20 minutes, 7.5 mg/kg, read-out: Clearance (Cl), Median
  clearance: 5.33 mL/min/kg
7.5 mg/kg, IV over 20 minutes, 7.5 mg/kg, read-out: Clearance (Cl), Range
  clearance: 4.33 to 6.17 mL/min/kg
7.5 mg/kg, IV over 20 minutes, 7.5 mg/kg, read-out: Cmax, Mean
  Cmax: 22900 ng/mL
7.5 mg/kg, IV over 20 minutes, 7.5 mg/kg, read-out: Cmax, Median
  Cmax: 23200 ng/mL
7.5 mg/kg, IV over 20 minutes, 7.5 mg/kg, read-out: T1/2, Mean
  half-life: 24.8 h
7.5 mg/kg, IV over 20 minutes, 7.5 mg/kg, read-out: T1/2, Median
  half-life: 25.5 h
7.5 mg/kg, IV over 20 minutes, 7.5 mg/kg, read-out: T1/2, Range
  half-life: 15.3 to 35.4 h
7.5 mg/kg, IV over 20 minutes, 7.5 mg/kg, read-out: Volume of Distribution (Vd), Mean
  Vd: 11.2 L/kg
7.5 mg/kg, IV over 20 minutes, 7.5 mg/kg, read-out: Volume of Distribution (Vd), Median
  Vd: 10.8 L/kg
7.5 mg/kg, IV over 20 minutes, 7.5 mg/kg, read-out: Volume of Distribution (Vd), Range
  Vd: 7.02 to 17.5 L/kg
IV over 20 minutes, across dose groups 3.5-7.5 mg/kg, read-out: Half-life, mean value (converted)
  half-life: 22 h
IV over 20 minutes, each cohort, read-out: Half-life, range of cohort means
  half-life: 20.6 to 24.8 h
IV over 20 minutes, each cohort, read-out: Volume of distribution (Vd), range of cohort means
  Vd: 9.3 to 11.2 L/kg
IV over 20 minutes, in each cohort, read-out: Total body clearance, mean value (converted)
  clearance: 5.33 mL/min/kg
IV over 20 minutes, read-out: Vss, range of cohort means
  Vd: 2.21 to 2.39 L/kg
After IV administration, overall analysis on the three groups, read-out: Volume of distribution, median
  Vd: 10.2 L/kg
After IV administration, read-out: Terminal half-life, median (converted)
  half-life: ~22 h
After IV administration, read-out: Terminal half-life, range
  half-life: 7 to 36 h
After IV administration, read-out: Total clearance, median
  clearance: 354 mL/min
After IV administration, read-out: Total clearance, range
  clearance: 241 to 502 mL/min
